Paper PMC3069055, “Structural Asymmetry of Phosphodiesterase-9, Potential Protonation of a Glutamic Acid, and Role of the Invariant Glutamine” (PLoS ONE, 2011)
“And” between values parts separate entries of the source, which are not always exact repeats. Equal values may be shown once. Read-outs that look alike come from different tables or passages of the source.

How the values were obtained:
[1] = target: T1, wild type PDE9A2 catalytic domain (Homo sapiens, UniProt O76083); test: PDE9A2 enzymatic assay, IC50 of inhibitors (3H-cGMP substrate); type: biochemical
T1 construct: The coding region for residues 181-506 of PDE9A2 was amplified by PCR; inferred from vector pET15b and Ni-NTA purification) (N); made in house; host or cells: E. coli BL21 (Codonplus)
T1 sequence (O76083 241-566): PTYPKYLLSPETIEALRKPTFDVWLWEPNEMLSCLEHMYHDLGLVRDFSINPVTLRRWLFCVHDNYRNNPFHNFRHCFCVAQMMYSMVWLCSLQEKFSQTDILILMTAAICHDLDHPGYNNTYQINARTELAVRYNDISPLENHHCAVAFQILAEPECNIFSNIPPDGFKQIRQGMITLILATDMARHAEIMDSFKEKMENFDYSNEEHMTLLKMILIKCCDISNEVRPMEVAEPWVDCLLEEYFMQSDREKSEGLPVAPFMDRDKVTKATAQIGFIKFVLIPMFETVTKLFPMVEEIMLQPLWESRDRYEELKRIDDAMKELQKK
Protocol: (§1) Each measurement was repeated two times. The reaction was carried out at room temperature for 15 min and then terminated by the addition of 0.2 M ZnSO4 and 0.2 M Ba(OH)2. […] Vmax and KM values were calculated by nonlinear regression on the curve of velocity versus substrate concentration and also by Eadie-Hofstee plot. […] The IC50 values were calculated by nonlinear regression.

PDE9A2 E406A mutant [2] = target: T2, PDE9A2 E406A mutant (Homo sapiens, UniProt O76083, E466A); test: as above; type: biochemical
T2 construct: The coding region for residues 181-506 of PDE9A2 was amplified by PCR; inferred from vector pET15b and Ni-NTA purification) (N); made in house; host or cells: E. coli BL21 (Codonplus)
T2 sequence (O76083 241-566 E466A): as the sequence (O76083 241-566) above, with E226A counted along it
Protocol: as §1

[3] = target: T3, PDE9A2 Q453E mutant (PDE9Q453E) (Homo sapiens, UniProt O76083, Q513E); test: as above; type: biochemical
T3 construct: The catalytic domain of the PDE9Q453E mutant (10–15 mg/mL, amino acids 181–506); made in house; host or cells: E. coli BL21 (Codonplus)
Protocol: as §1

[4] = target: T1, wild type PDE9A2 catalytic domain; test: Enzymatic assay, kinetic parameters with cAMP and cGMP as substrates; type: biochemical; conditions: substrate
Protocol: as §1

PDE9A2 E406A mutant [5] = target: T2, PDE9A2 E406A mutant; test: as above; type: biochemical
Protocol: as §1

[6] = target: T3, PDE9A2 Q453E mutant (PDE9Q453E); test: as above; type: biochemical
Protocol: as §1

PDE5A Q817A mutant = conditions: PDE5A Q817A versus wild type; cited from earlier work
[7] = target: the molecule itself; test: crystal structure; PDE9Q453E catalytic domain (10-15 mg/mL) co-crystallised with 2 mM IBMX, hanging drop, 2.0 M Na formate, 0.1 M HEPES pH 7.5, 5% xylitol, 4°C; (S)-BAY73-6691 complex by soaking; two molecules in the asymmetric unit
[8] = E406A compared with wild type enzyme

CCCOc1ccccc1-c1nc2nn[nH]c2c(=O)[nH]1 [Zaprinast]
IC50 ([1]; wild type enzyme, 30 nM 3H-cGMP, read-out: IC50): 15.9 ± 1.2 µM | IC50 (PDE9A2 E406A mutant [2]; E406A mutant, 30 nM 3H-cGMP, read-out: IC50): 7.6 ± 1.1 µM | IC50 ([3]; Q453E mutant, 30 nM 3H-cGMP): 53.7 ± 1.2 µM

Nc1nc2c(ncn2[C@@H]2O[C@@H]3COP(=O)(O)O[C@H]3[C@H]2O)c(=O)[nH]1 [cGMP]
Km [4]: 0.113 ± 0.013 µM | Vmax [4]: 0.285 ± 0.008 µmol/mg/min | kcat [4]: 0.18±0.00 S^−1 | fold reduction of apparent affinity, E406A versus wild type (PDE9A2 E406A mutant [5]; [8]): 2 fold | fold reduction of catalytic activity, E406A versus wild type (PDE9A2 E406A mutant [5]; [8]): 2 fold | Km (PDE9A2 E406A mutant [5]; E406A, substrate): 0.311 ± 0.04 µM | Vmax (PDE9A2 E406A mutant [5]; E406A, substrate): 0.129 ± 0.004 µmol/mg/min | kcat (PDE9A2 E406A mutant [5]; E406A, substrate): 0.08±0.00 S^−1 | fold loss of enzymatic efficacy kcat/KM, Q453E versus wild type ([6]; Q453E compared with wild type enzyme): about 50 fold | Km ([6]; Q453E, substrate): 2.8 ± 0.18 µM | Vmax ([6]; Q453E, substrate): 0.139 ± 0.003 µmol/mg/min | kcat ([6]; Q453E, substrate): 0.09±0.00 S^−1 | fold reduction of cGMP affinity by Q817A mutation (PDE5A Q817A mutant): about 60 fold

C[C@@H](Cc1nc2c(cnn2-c2ccccc2Cl)c(=O)[nH]1)C(F)(F)F [(S)-BAY73-6691, 1-(2-chlorophenyl)-6-(3,3,3-trifluoro-2-methylpropyl)-1H-pyrazolo [3,4-d]pyrimidin-4(5H)-one]
fold increase of IC50 (affinity decrease), Q453E mutant versus wild type ([3]; Q453E IC50 relative to wild type IC50): > 1800 fold and 1800 fold

CC(C)Cn1c(=O)n(C)c(=O)c2[nH]cnc21 [IBMX, 3-isobutyl-1-methylxanthine]
IC50 [1]: 53.9 ± 1.1 µM | IC50 (PDE9A2 E406A mutant [2]): 31.7 ± 1.1 µM

B1: catalytic domain of the PDE9A2 Q453E mutant (amino acids 181-506) (domain or fragment, human, UniProt O76083-2 181-506, looked up)
chain: PTYPKYLLSPETIEALRKPTFDVWLWEPNEMLSCLEHMYHDLGLVRDFSINPVTLRRWLFCVHDNYRNNPFHNFRHCFCVAQMMYSMVWLCSLQEKFSQTDILILMTAAICHDLDHPGYNNTYQINARTELAVRYNDISPLENHHCAVAFQILAEPECNIFSNIPPDGFKQIRQGMITLILATDMARHAEIMDSFKEKMENFDYSNEEHMTLLKMILIKCCDISNEVRPMEVAEPWVDCLLEEYFMQSDREKSEGLPVAPFMDRDKVTKATAEIGFIKFVLIPMFETVTKLFPMVEEIMLQPLWESRDRYEELKRIDDAMKELQKK
notes: phosphodiesterase 9A, isoform PDE9A2, human, catalytic domain, residues 181-506, GenBank BC009047; numbers count on: PDE9A2; also called PDE9Q453E; PDE9 Q453E mutant; source: E. coli BL21 (Codonplus), purified (Ni-NTA, Q-Sepharose, Sephacryl S300)
binding result [7]: binds
